The values that follow come from US11066447B2, “Aureobasidium derivatives and methods of synthesis” (AureoGen Biosciences, Inc., priority 2016, dated 2021).

Converted amounts (≈) assume the structure as drawn. Read-outs that look alike come from different tables or passages of the source. Numbered stars: 1 amine (or outer) side, 2 acyl side, 3 side chain; on linkers, the order of the positions; unused ones are H or OH. Square brackets hold non-standard residues; d marks the D form. Peptide text beside a SMILES is read from it. X26 = CC1CCN(c2cnc(-c3cccc(C[C@@H](C(=O)[*:2])N(C)[*:1])c3)cn2)CC1; X25 = CN([C@@H](Cc1cccc(-c2ccc3cccnc3c2)c1)C(=O)[*:2])[*:1]; Hmp(2R,3S) = CC[C@H](C)[C@@H](O)C(=O)O; NMeVal(β-OH) = CN[C@H](C(=O)O)C(C)(C)O; NMeV = CN[C@H](C(=O)O)C(C)C

Test [1] concerns A. fumigatus MMX 5944. Description: MIC/MEC assay (CLSI microdilution). Type of test: cell-based. Particulars: Aspergillus fumigatus, MMX5944, 48 h; for minimal effective concentration: RPMI plus 0.002% Tween-80; for MIC: RPMI plus 0.002% Tween-80, read-out: MIC. As for the experimental part:
(§1) Aureobasidin and test compounds (i.e., AbA derivatives of the present invention) were received from Kalexsyn, Inc. (Kalamazoo, Mich.) as powder and were stored at 4° C. until the day of assay. […] amphotericin was obtained from Sigma Aldrich and stored under like conditions. […] Ethanol (95%) was used as a solvent and diluent for all AbA compounds. Amphotericin B was tested from 0.06-64 μg/mL. Amphotericin B (Sigma Aldrich; St. Louis, Mo.; Cat No. A9528-100MG, Lot No. 120M4087) was dissolved and diluted with dimethylsulfoxide (DMSO; Sigma Aldrich; St. Louis, Mo.; Cat No. 472301 Lot No. SHBD2072V).
(§2) The solvents were added to the test agents and the stock solutions stood for approximately 1 hr at room temperature prior to use to auto sterilize. Stock solutions were prepared at 40× the desired top concentration in the test plate.
(§3) All of the test isolates were originally received from either the American Type Culture Collection (ATCC), clinical labs, or directly from Aureogen Biosciences. Organisms stored by Micromyx were cultured on agar medium appropriate to each organism. Colonies were picked by swab from the isolation plates and put into suspension in appropriate broth containing cryoprotectant. The suspensions were aliquoted into cryogenic vials and maintained at −80° C.
(§4) Prior to testing, Candida isolates were streaked from the frozen vials on Sabouraud dextrose agar. The yeast isolates were incubated for 48 hours at 35° C. before use. The fungal isolates were obtained from enumerated fungal stocks previously prepared at Micromyx and stored in phosphate buffered saline at 4° C.
(§5) Test Media. The medium employed for the MIC assay was RPMI-1640 medium from HyClone Laboratories (Logan, Utah; Lot No. AYB60287A). The medium was prepared according to Clinical and Laboratory Standards Institute (CLSI) guidelines (1, 2), and modified to include 0.002% Tween-80. Candida parapsilosis ATCC 22019 (MMX 2323) and Aspergillus fumigatus ATCC MYA-3626 (MMX 5280) were also tested without Tween-80 to provide data for the quality control of amphotericin B in accordance with CLSI (3) and to assess the effect of Tween-80 on the activity of the test agents.
(§6) Test Procedure. The MIC assay method followed the procedure described by CLSI (1, 2) and employed automated liquid handlers to conduct serial dilutions and liquid transfers. Automated liquid handlers included the Multidrop 384 (Labsystems, Helsinki, Finland), Biomek 2000 and Biomek FX (Beckman Coulter, Fullerton Calif.). The wells in columns 2-12 in standard 96-well microdilution plates (Costar 3795) were filled with 150 μl of the appropriate diluent (95% EtOH for investigational compounds, 100% DMSO for amphotericin B). These assay plates would become the ‘mother plates’ from which the assay ‘daughter plates’ would be prepared. The drugs (300 μL at 40× the desired top concentration in the test plates) were dispensed into the appropriate well in Column 1 of the mother plates. The Biomek 2000 was used to make two-fold serial dilutions through Column 11 in the “mother plate”. The wells of Column 12 contained no drug and served as the organism growth control wells.
(§7) The daughter plates were loaded with 185 μL per well on the Multidrop 384 with RPMI plus 0.002% Tween-80 or RPMI containing no Tween-80 for the testing of the two QC isolates. The daughter plates were prepared on the Biomek FX instrument which transferred 5 μL of drug solution from each well of a mother plate to each corresponding well of each daughter plate in a single step.
(§8) A standardized inoculum of each organism was prepared per CLSI methods (1, 2). For the Candida isolates, colonies were picked from the streak plate and a suspension was prepared in RPMI to equal a 0.5 McFarland standard. This suspension was diluted 1:100 in RPMI resulting in a final concentration of approximately 0.5-2.5×10^3 CFU/mL. […]
A general note: Broth dilution looks for growth in wells or tubes with falling amounts of substance.

Test [2] deals with A. fumigatus MMX 6782 ATCC 13073. As to the kind of experiment: MIC/MEC assay (CLSI microdilution). Type of test: cell-based. Particulars: Aspergillus fumigatus, ATCC13073, 48 h; for minimal effective concentration: RPMI plus 0.002% Tween-80, read-out: MEC; for MIC: RPMI plus 0.002% Tween-80, read-out: MIC. As for the experimental part:
as §1, §2, §3, §4, §5, §6, §7, §8

Test [3] relates to A. flavus MMX 5948. As to the kind of experiment: MIC/MEC assay (CLSI microdilution). Type of test: cell-based. Particulars: Aspergillus flavus, MMX5948, 48 h; for minimal effective concentration: RPMI plus 0.002% Tween-80; for MIC: RPMI plus 0.002% Tween-80, read-out: MIC. The protocol:
as §1, §2, §3, §4, §5, §6, §7, §8

Test [4] deals with A. fumigatus from Aureogen. As to the kind of experiment: MIC/MEC assay (CLSI microdilution). In kind it is cell-based. Particulars: Aspergillus fumigatus, 48 h; for minimal effective concentration: RPMI plus 0.002% Tween-80; for MIC: RPMI plus 0.002% Tween-80, read-out: MIC. As for the experimental part: as §1, §2, §3, §4, §5, §6, §7, §8
Test [5] concerns A. fumigatus MMX 6781 ATCC MYA-4609. Description: MIC/MEC assay (CLSI microdilution). Type of test: cell-based. The protocol:
as §1, §2, §3, §4, §5, §6, §7, §8

The subject of test [6] is A. niger MMX 0624 ATCC 16888. Description: MIC/MEC assay (CLSI microdilution). In kind it is cell-based. Particulars: Aspergillus niger, ATCC16888, 48 h; for minimal effective concentration: RPMI plus 0.002% Tween-80, read-out: MEC; for MIC: RPMI plus 0.002% Tween-80, read-out: MIC. As for the experimental part: as §1, §2, §3, §4, §5, §6, §7, §8
Test [7] has as its system C. parapsilosis MMX 2323 ATCC 22019. Description: MIC assay (CLSI microdilution). Type of test: cell-based, Candida parapsilosis. Particulars: read-out: MIC. As for the experimental part:
as §1, §2, §3, §4, §5, §6, §7, §8

Test [8] concerns C. neoformans MMX 0634 ATCC 90112. Description: MIC assay (CLSI microdilution). In kind it is cell-based. Particulars: Cryptococcus neoformans, ATCC90112, RPMI plus 0.002% Tween-80; read-out: MIC. As for the experimental part:
as §1, §2, §3, §4, §5, §6, §7, §8

Test [9] has as its system C. albicans MMX 2000 ATCC 10231. Description: MIC assay (CLSI microdilution). Particulars: Candida albicans, ATCC10231, RPMI plus 0.002% Tween-80; read-out: MIC. In kind it is cell-based. As for the experimental part: as §1, §2, §3, §4, §5, §6, §7, §8
For test [10], the system named is A. fumigatus MMX 5280 ATCC MYA-3626. Description: MIC/MEC assay (CLSI microdilution). Type of test: cell-based, Aspergillus fumigatus. Particulars: for minimal effective concentration / MIC: Aspergillus fumigatus, 48 h. As for the experimental part:
as §1, §2, §3, §4, §5, §6, §7, §8

Where [11] appears, read: ATCC22019, RPMI plus 0.002% Tween-80.
Setting [12] is: RPMI plus 0.002% Tween-80, read-out: MEC.
Setting [13] is: RPMI plus 0.002% Tween-80, read-out: MIC.
Setting [14] is: Without Tween-80, read-out: MIC.
Setting [15] is: RPMI plus 0.002% Tween-80, 48 hr.

As a reminder, the MIC is the least concentration at which growth counts as inhibited. In the case of `CC[C@H](C)[C@@H]1NC(=O)[C@@H]2CCCN2C(=O)[C@H](Cc2cccc(-c3ccc4cccnc4c3)c2)N(C)C(=O)[C@H](Cc2ccccc2)NC(=O)[C@H](C(C)C)N(C)C(=O)[C@@H]([C@@H](C)CC)OC(=O)[C@H](C(C)(C)O)N(C)C(=O)[C@H](CC(C)C)NC(=O)[C@H](C(C)C)N(C)C1=O` [Compound 10] (cyclo(F[X25]PI[NMeV]L[NMeVal(β-OH)][Hmp(2R,3S)][NMeV])), the minimal effective concentration was determined as 0.12 µg/mL in test [1]; 0.25 µg/mL in test [2]; 0.5 µg/mL in test [3]; 0.25 µg/mL in test [4]; 0.25 µg/mL in test [5] (Aspergillus fumigatus, RPMI plus 0.002% Tween-80, 48 hr); 0.06 µg/mL in [6]. Moreover, the minimal effective concentration in [10] (setting [12]) came out at 0.25 µg/mL. For the same compound, the MIC amounted to 0.5 µg/mL in test [1]; 1 µg/mL in [2]; 1 µg/mL in test [3]; 1 µg/mL in [4]; 1 µg/mL in test [5] (Aspergillus fumigatus, 48 h, RPMI plus 0.002% Tween-80, read-out: MIC); 0.06 µg/mL in test [6]. Moreover, the minimum inhibitory concentration (MIC) turned out to be 0.12 µg/mL in [7] (setting [11]); 1 µg/mL (≈ 0.814 µM) in [7] (ATCC22019, Without Tween-80); 0.12 µg/mL in test [8]; 0.03 µg/mL in test [9]; 1 µg/mL in test [10] (setting [13]); 2 µg/mL (≈ 1.63 µM) in test [10] (setting [14]). This compound also yielded an MEC in test [10] (Without Tween-80, 48 hr) of 1 µg/mL.
As for `CC[C@H](C)[C@@H]1NC(=O)[C@@H]2CCCN2C(=O)[C@H](Cc2cccc(-c3cnc(N4CCC(C)CC4)cn3)c2)N(C)C(=O)[C@H](Cc2ccccc2)NC(=O)[C@H](C(C)C)N(C)C(=O)[C@@H]([C@@H](C)CC)OC(=O)[C@H](C(C)(C)O)N(C)C(=O)[C@H](CC(C)C)NC(=O)[C@H](C(C)C)N(C)C1=O` [Compound 11] (cyclo(F[X26]PI[NMeV]L[NMeVal(β-OH)][Hmp(2R,3S)][NMeV])), the minimal effective concentration turned out to be 2 µg/mL in [1]; 0.5 µg/mL in [2]; 1 µg/mL in [3]; 2 µg/mL in [4]; 0.5 µg/mL in [6]; 8 µg/mL in test [10] (setting [12]). Moreover, in test [10] (Without Tween-80, read-out: MEC), the minimal effective concentration worked out at 4 µg/mL. The MIC in test [1] is above 64 µg/mL; in [2] it was above 64 µg/mL; in [3], above 64 µg/mL; in test [4], above 64 µg/mL; in test [5] (setting [15]) it was 64 µg/mL; in test [6], 0.5 µg/mL. Moreover, the minimal inhibitory concentration (MIC) was 0.25 µg/mL in test [7] (setting [11]); 1 µg/mL (≈ 0.783 µM) in test [7] (ATCC22019, Without Tween-80); 0.25 µg/mL in test [8]; 0.06 µg/mL in test [9]; above 64 µg/mL in test [10] (setting [13]); above 64 µg/mL in test [10] (setting [14]). In test [5] (setting [15]), the MEC amounted to 8 µg/mL.
